Test results from ChEMBL document CHEMBL1139562, “A switch in enantiomer preference between mitochondrial F1F0-ATPase chemotypes” (Bioorg Med Chem Lett, 2005).

Legend:
[1] = target: T1, Mitochondrial complex V; ATP synthase (Bos taurus) (UniProt P05632+P00829+P05631+P05630); test: Inhibitory activity against mitochondrial ATP synthase from bovine; type: protein-complex assay
[2] = target: T1, Mitochondrial complex V; ATP synthase (Bos taurus); test: Inhibitory activity against mitochondrial ATP hydrolase from bovine; type: protein-complex assay
[3] = target: T1, Mitochondrial complex V; ATP synthase (Bos taurus); test: Inhibitory activity against mitochondrial ATP synthase from bovine

## N#Cc1cccc(C(=O)N/C(=N\[C@H](Cn2ccnc2)c2ccc(Cl)cc2Cl)Nc2ccc(Cl)cc2)c1
[1]
  Inhibition: 18 nM
[2]
  Inhibition: > 100 µM

## S=C(Nc1ccc(Cl)cc1)O[C@H](Cn1ccnc1)c1ccc(Cl)cc1Cl
[1]
  Inhibition: 3600 nM
[2]
  Inhibition: > 100 µM

## N#Cc1cccc(C(=O)N/C(=N\[C@@H](Cn2ccnc2)c2ccc(Cl)cc2Cl)Nc2ccc(Cl)cc2)c1
[1]
  Inhibition: > 100000 nM
[3]
  Inhibition: > 100 µM

## S=C(Nc1ccc(Cl)cc1)O[C@@H](Cn1ccnc1)c1ccc(Cl)cc1Cl
[1]
  Inhibition: 140 nM
[2]
  Inhibition: > 100 µM

## S=C(Nc1ccc(Cl)cc1Cl)O[C@H](Cn1ccnc1)c1ccc(Cl)cc1Cl
[1]
  Inhibition: 2200 nM
[2]
  Inhibition: > 100 µM

## S=C(Nc1ccc(Cl)cc1Cl)O[C@@H](Cn1ccnc1)c1ccc(Cl)cc1Cl
[1]
  Inhibition: 19 nM
[2]
  Inhibition: > 100 µM
